In patent US10253002B2, “Compounds and methods of treating infections” (Neoculi Pty Ltd., priority 2013, dated 2019):
Converted amounts (≈) assume the structure as drawn. “And” between values parts separate entries of the source, which are not always exact repeats. Equal entries are not always repeated. Where two headings read alike, the source gives them in different places.

Key:
[1] = system: Staphylococcus aureus T3-129 / Staphylococcus spp. MK1; test: Synergy studies, checkerboard method (FIC index); type: cell-based; settings: for FICI: FIC index of antibiotic with NCL812; for Antibiotic MIC With NCL812: antibiotic in combination with NCL812; for Result (interaction with NCL812): antibiotic with NCL812
[2] = system: S. aureus isolates (HA-MRSA, CA-MRSA, methicillin-susceptible staphylococci); test: Kirby-Bauer disc diffusion resistotyping, Example 4; type: cell-based, Staphylococcus aureus; settings: for Total isolates resistant (Kirby-Bauer disc diffusion): all isolates (n = 30)
Experimental: Antibiotic-susceptibility profiling of the isolate collection was undertaken using Kirby-Bauer disc diffusion, as recommended by the Clinical and Laboratory Standards Institute (CLSI) on Mueller-Hinton agar. Isolates were grown overnight on SBA at 37° C. Colonies were suspended in physiological saline. Turbidity was adjusted to a 0.5 McFarland standard and suspensions were spread over the medium. Antibiotic discs according to Table 9 below were transferred onto the inoculated medium and analysed after 24 h incubation at 37° C.

S. pneumoniae isolates = test: Disk diffusion susceptibility (CLSI/EUCAST), Example 5; type: cell-based, Streptococcus pneumoniae
Experimental: Isolate susceptibility to 12 different antimicrobials (Table 16) was determined by CLSI and European Committee on Antimicrobial Susceptibility Testing (EUCAST) methods. Antimicrobials were selected based upon the CLSI and EUCAST guidelines. Standardised bacterial suspensions were spread onto MHSBA using a sterile cotton swab. Bacterial suspensions from of Streptococcus pneumoniae were standardised to an OD6O0 between 0.08 and 0.1 using a spectrophotometer and then diluted 1:20. Bacterial colonies were taken from an O/N horse blood agar plate. To ensure the purity of the 1:20 bacterial suspension, 50 μL was spread plated onto horse blood agar and incubated O/N at 37° C. with 5% CO2. The CFU was calculated and compared to the initial plate counts. Antibiotic disks (Purchased from Sigma Aldrich) were placed using a disk dispenser (Purchased from Oxoid) according to CLSI standards. MHSBA plates were incubated for 16 h-24 h at 37° C. in 5% CO2. Zones of complete inhibition were measured in triplicate to the nearest millimeter using a ruler on natural light-reflected growth, and the mode was represented as the diameter for each isolate. Pneumococcal isolates were categorised as sensitive, intermediate (I) or resistant (R) by CLSI standards and quality control (QC) ranges (Table 16).

[3] = system: Staphylococcus pseudintermedius isolates (MSSP and MRSP); test: Disk diffusion and Epsilometer susceptibility testing, Example 6; type: cell-based; settings: 13 MRSP isolates
[4] = Bioassay ranking of the analogues tested; settings: M + R (MRSA and VRE combined)
Pseudomonas aeruginosa = test: Broth microdilution MIC, Example 7 (NCL812 and analogues); type: cell-based
MRSA = test: as above; type: cell-based, Staphylococcus aureus; settings: for activity against MRSA among analogues: MIC testing, two MRSA strains; for MIC: Staphylococcus aureus
How it was run: (§1)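 Values are MICs in μg/ml from broth microdilution per CLSI, with growth scored against a drug-free well.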

VRE = test: as above; type: cell-based, Enterococcus spp.; settings: for activity against VRE among analogues: MIC testing, two VRE strains; for MIC: Enterococcus
How it was run: as §1

Escherichia coli = test: as above; type: cell-based; settings: E. coli, 24 hours
[5] = Methicillin-susceptible staphylococci (n = 10)

For `CC1(C)S[C@@H]2[C@H](NC(=O)Cc3ccccc3)C(=O)N2[C@H]1C(=O)O` [Penicillin G], the FICI ([1]; Staphylococcus spp. Strain MK1) was 1 and 0.625, the “Antibiotic MIC Alone” value ([1]; Staphylococcus spp. Strain MK1) was 0.125 mg/L and 0.25 mg/L and the “Antibiotic MIC With NCL812” value ([1]; Staphylococcus spp. Strain MK1) was 0.062 mg/L and 0.031 mg/L. For the same compound, the “Result (interaction with NCL812)” value ([1]; Staphylococcus spp. Strain MK1) was “NE (No effect (NE) was defined as 0.5<FICI<4)”.

With `CN(C)[C@@H]1C(O)=C(C(N)=O)C(=O)[C@@]2(O)C(O)=C3C(=O)c4c(O)cccc4[C@@](C)(O)[C@H]3C[C@@H]12` [Tetracycline] the FICI ([1]; S. aureus strain T3-29) was 0.625 and 0.75 and 0.62, the “Antibiotic MIC Alone” value ([1]; S. aureus strain T3-29) was 0.25 mg/L and 0.5 mg/L and the “Result (interaction with NCL812)” value ([1]; S. aureus strain T3-29) was “NE (No effect (NE) was defined as 0.5<FICI<4)”. The “isolates resistant (Kirby-Bauer disc diffusion)” value ([2]; CA-MRSA (n = 10)) was 30.00%, the “isolates resistant (Kirby-Bauer disc diffusion)” value ([2]; HA-MRSA (n = 10)) was 30.00% and the “isolates resistant (Kirby-Bauer disc diffusion)” value [2, 5] was 0.00%. The “Total isolates resistant (Kirby-Bauer disc diffusion)” value [2] was 20.00%, the “disk diffusion zone diameter” value (S. pneumoniae isolates; A66.1) was 32 mm and the “disk diffusion zone diameter” value (S. pneumoniae isolates; D39) was 35 mm. The “disk diffusion zone diameter” value (S. pneumoniae isolates; EF3030) was 34 mm, the “disk diffusion zone diameter” value (S. pneumoniae isolates; L82016) was 32 mm and the “disk diffusion zone diameter” value (S. pneumoniae isolates; P9) was 32 mm. The “disk diffusion zone diameter” value (S. pneumoniae isolates; P21) was 38 mm, the “disk diffusion zone diameter” value (S. pneumoniae isolates; TIGR4) was 35 mm and the “disk diffusion zone diameter” value (S. pneumoniae isolates; WCH16) was 18 mm. The “disk diffusion susceptibility category” value (S. pneumoniae isolates; WCH16 (Table 19)) was “R”, the “disk diffusion zone diameter” value (S. pneumoniae isolates; WCH43) was 31 mm and the “disk diffusion zone diameter” value (S. pneumoniae isolates; WCH46) was 30 mm. The “disk diffusion zone diameter” value (S. pneumoniae isolates; WCH57) was 48 mm, the “disk diffusion zone diameter” value (S. pneumoniae isolates; WCH77) was 39 mm and the “disk diffusion zone diameter” value (S. pneumoniae isolates; WCH86) was 31 mm. The “disk diffusion zone diameter” value (S. pneumoniae isolates; WCH89) was 35 mm, the “disk diffusion zone diameter” value (S. pneumoniae isolates; WCH92) was 29 mm and the “disk diffusion zone diameter” value (S. pneumoniae isolates; WCH137) was 37 mm. For the same compound, the “disk diffusion zone diameter” value (S. pneumoniae isolates; WCH158) was 35 mm, the “disk diffusion zone diameter” value (S. pneumoniae isolates; WCH184) was 11 mm and the “disk diffusion susceptibility category” value (S. pneumoniae isolates; WCH184 (Table 19)) was “R”. The “disk diffusion zone diameter” value (S. pneumoniae isolates; WCH211) was 36-37 mm and the “disk diffusion zone diameter” value (S. pneumoniae isolates; WU2) was 34 mm.

In the case of `Cc1cc(NS(=O)(=O)c2ccc(N)cc2)no1` [Sulfamethoxazole], the FICI ([1]; Staphylococcus spp. Strain MK1) is reported as 0.75 and 1, the FIC1 ([1]; Staphylococcus spp. Strain MK1, MIC of antibiotic in combination with NCL812/MIC of antibiotic alone) is reported as 0.5 and the “Antibiotic MIC Alone” value ([1]; Staphylococcus spp. Strain MK1) is reported as 8 mg/L. For the same compound, the “Antibiotic MIC With NCL812” value ([1]; Staphylococcus spp. Strain MK1) was 4 mg/L and the “Result (interaction with NCL812)” value ([1]; Staphylococcus spp. Strain MK1) was “NE (No effect (NE) was defined as 0.5<FICI<4)”.

With `O=C(N[C@H](CO)[C@H](O)c1ccc([N+](=O)[O-])cc1)C(Cl)Cl` [Chloramphenicol] the FICI ([1]; S. aureus strain T3-29) was 0.75 and 0.562, the “Antibiotic MIC Alone” value ([1]; S. aureus strain T3-29) was 8 mg/L and 4 mg/L and the “Result (interaction with NCL812)” value ([1]; S. aureus strain T3-29) was “NE (No effect (NE) was defined as 0.5<FICI<4)”. For the same compound, the “disk diffusion zone diameter” value (S. pneumoniae isolates; A66.1) was 34 mm, the “disk diffusion zone diameter” value (S. pneumoniae isolates; D39) was 31 mm and the “disk diffusion zone diameter” value (S. pneumoniae isolates; EF3030) was 29 mm. The “disk diffusion zone diameter” value (S. pneumoniae isolates; L82016) was 26 mm, the “disk diffusion zone diameter” value (S. pneumoniae isolates; P9) was 31 mm and the “disk diffusion zone diameter” value (S. pneumoniae isolates; P21) was 35 mm. For the same compound, the “disk diffusion zone diameter” value (S. pneumoniae isolates; TIGR4) was 32 mm, the “disk diffusion zone diameter” value (S. pneumoniae isolates; WCH16) was 11 mm and the “disk diffusion susceptibility category” value (S. pneumoniae isolates; WCH16 (Table 18)) was “R”. The “disk diffusion zone diameter” value (S. pneumoniae isolates; WCH43) was 26 mm, the “disk diffusion zone diameter” value (S. pneumoniae isolates; WCH46) was 28 mm and the “disk diffusion zone diameter” value (S. pneumoniae isolates; WCH57) was 40 mm. The “disk diffusion zone diameter” value (S. pneumoniae isolates; WCH77) was 36 mm, the “disk diffusion zone diameter” value (S. pneumoniae isolates; WCH86) was 34 mm and the “disk diffusion zone diameter” value (S. pneumoniae isolates; WCH89) was 32 mm. For the same compound, the “disk diffusion zone diameter” value (S. pneumoniae isolates; WCH92) was 32 mm, the “disk diffusion zone diameter” value (S. pneumoniae isolates; WCH137) was 31 mm and the “disk diffusion zone diameter” value (S. pneumoniae isolates; WCH158) was 34 mm. For the same compound, the “disk diffusion zone diameter” value (S. pneumoniae isolates; WCH184) was 29 mm, the “disk diffusion zone diameter” value (S. pneumoniae isolates; WCH211) was 32 mm and the “disk diffusion zone diameter” value (S. pneumoniae isolates; WU2) was 30 mm. It also gave an MRSP isolates susceptible [3] of 23%.

In the case of `Nc1nc(N/N=C/c2ccccc2O)cc(N/N=C/c2ccccc2O)n1` [NCL202], the “M + R” value [4] is reported as 9 µg/mL, the “MIC (μg/ml) at 24 hours, P. aeruginosa” value (Pseudomonas aeruginosa; P. aeruginosa, 24 hours) is reported as >128 µg/mL and the “activity against MRSA among analogues” value (MRSA) is reported as “greatest activity”. The “MIC (μg/ml) at 24 hours, MRSA 1” value (MRSA; MRSA 1, 24 hours) was 8 µg/mL (≈ 22 µM), the “MIC (μg/ml) at 24 hours, MRSA 2” value (MRSA; MRSA 2, 24 hours) was 8 µg/mL (≈ 22 µM) and the MRSA (MRSA; bioassay ranking, MRSA) was 10 µg/mL. The “activity against VRE among analogues” value (VRE) was “greatest activity”, the “MIC (μg/ml) at 24 hours, VRE 1” value (VRE; VRE 1, 24 hours) was 8 µg/mL (≈ 22 µM) and the “MIC (μg/ml) at 24 hours, VRE 2” value (VRE; VRE 2, 24 hours) was 8 µg/mL (≈ 22 µM). For the same compound, the VRE (VRE; bioassay ranking, VRE) was 8 µg/mL and the “MIC (μg/ml) at 24 hours, E. coli” value (Escherichia coli) was >128 µg/mL.

With `C/C(=N\NC(=N)N/N=C(\C)c1ccc(C)cc1)c1ccc(C)cc1.Cl` [NCL217] the “M + R” value [4] was 3.5 µg/mL, the MIC (Pseudomonas aeruginosa; Pseudomonas aeruginosa, 24 h, read-out: MIC (μg/ml) at 24 hours P. aeruginosa, P. aeruginosa, 24 hours) was > 128 µg/mL and the “activity against MRSA among analogues” value (MRSA) was “greatest activity”. The MIC (MRSA; MRSA, 24 h, read-out: MIC (μg/ml) at 24 hours MRSA 1, MRSA 1, 24 hours) was 4 µg/mL, the MIC (MRSA; MRSA, 24 h, read-out: MIC (μg/ml) at 24 hours MRSA 2, MRSA 2, 24 hours) was 4 µg/mL and the MIC (MRSA; MRSA, bioassay ranking, MRSA, read-out: MRSA) was 4 µg/mL. The MIC (VRE; VRE, 24 h, read-out: MIC (μg/ml) at 24 hours VRE 1, VRE 1, 24 hours) was 2 µg/mL, the MIC (VRE; VRE, 24 h, read-out: MIC (μg/ml) at 24 hours VRE 2, VRE 2, 24 hours) was 4 µg/mL and the MIC (VRE; VRE, bioassay ranking, VRE, read-out: VRE) was 3 µg/mL. For the same compound, the “activity against VRE among analogues” value (VRE) was “greatest activity” and the MIC (Escherichia coli; Escherichia coli, read-out: MIC (μg/ml) at 24 hours E. coli) was > 128 µg/mL.

For Gentamicin, the FICI ([1]; Staphylococcus spp. Strain MK1) was 0.625 and 0.75 and 0.515, the “Antibiotic MIC Alone” value ([1]; Staphylococcus spp. Strain MK1) was 1 mg/L and 0.5 mg/L and the “Result (interaction with NCL812)” value ([1]; Staphylococcus spp. Strain MK1) was “NE (No effect (NE) was defined as 0.5<FICI<4)”. The “isolates resistant (Kirby-Bauer disc diffusion)” value ([2]; CA-MRSA (n = 10)) was 0.00%, the “isolates resistant (Kirby-Bauer disc diffusion)” value ([2]; HA-MRSA (n = 10)) was 20.00% and the “isolates resistant (Kirby-Bauer disc diffusion)” value [2, 5] was 0.00%. For the same compound, the “Total isolates resistant (Kirby-Bauer disc diffusion)” value [2] was 20.00%.
